Measured values published in patent US20060252807A1, “Novel ortho-terphenyl inhibitors of p38 kinase and methods of treating inflammatory disorders” (Kalypsys, Inc., priority 2005, published 2006).

Molecular target: T1, active p38 alpha enzyme (Upstate Biotechnology) (Homo sapiens, UniProt Q16539)
T1 construct: purchased Upstate Biotechnology
Test: p38α biochemical assay (ATP turnover, luminescent detection, Cambrex PKlight)
Conditions: p38α kinase; Table 1 Biological Activity
In short: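 Active human p38α was incubated with full-length MapkapK2 protein as substrate and 1.4 uM ATP (final) for 2 hours at 30C. Buffer: 200 mM Tris, 100 mM MgCl2, 1.5 mM EGTA, 4 mM CaCl2, 20 mM MOPS, 1 mM EDTA, 1% glycerol, 0.1% β-mercaptoethanol, 1 mg/ml BSA. Total ATP turnover read by luminescence.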

T1 sequence (Q16539 whole entry): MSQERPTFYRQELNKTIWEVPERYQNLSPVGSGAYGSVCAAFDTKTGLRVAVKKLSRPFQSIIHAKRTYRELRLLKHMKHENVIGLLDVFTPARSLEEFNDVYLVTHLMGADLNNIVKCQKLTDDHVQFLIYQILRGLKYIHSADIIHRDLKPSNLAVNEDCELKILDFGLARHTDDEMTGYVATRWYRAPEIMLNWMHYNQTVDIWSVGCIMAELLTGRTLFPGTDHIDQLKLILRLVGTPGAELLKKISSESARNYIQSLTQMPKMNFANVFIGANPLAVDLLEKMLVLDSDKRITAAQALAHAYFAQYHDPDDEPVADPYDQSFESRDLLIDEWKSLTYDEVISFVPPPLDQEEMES

Structure (SMILES) | IC50 [nM]
CC(C)NC(=O)c1csc(-c2c(-c3ccc(F)cc3)n[nH]c2C2CCN(C(=O)c3cc(Cl)ccc3O)CC2)n1 [Example 910] | > 1000
CC(C)NC(=O)c1csc(-c2c(-c3ccc(F)cc3)n[nH]c2C2CCN(C(=O)c3ccc4ncccc4c3)CC2)n1 [Example 911] | > 1000
CC(C)NC(=O)c1csc(-c2c(-c3ccc(F)cc3)n[nH]c2C2CCN(C(=O)c3cnc(O)c(Cl)c3)CC2)n1 [Example 912] | > 1000
CC(C)NC(=O)c1csc(-c2c(-c3ccc(F)cc3)n[nH]c2C2CCN(C(=O)c3c(F)cccc3Cl)CC2)n1 [Example 914] | > 1000
CC(C)NC(=O)c1csc(-c2c(-c3ccc(F)cc3)n[nH]c2C2CCN(C(=O)c3ccc(C(C)(C)C)cc3)CC2)n1 [Example 923] | ≤ 1000
CC(=O)Nc1cccc(C(=O)N2CCC(c3[nH]nc(-c4ccc(F)cc4)c3-c3nc(C(=O)NC(C)C)cs3)CC2)c1 [Example 925] | ≤ 1000
CC(=O)Oc1ccccc1C(=O)N1CCC(c2[nH]nc(-c3ccc(F)cc3)c2-c2nc(C(=O)NC(C)C)cs2)CC1 [Example 930] | > 1000
CCCOc1ccc(C(=O)N2CCC(c3[nH]nc(-c4ccc(F)cc4)c3-c3nc(C(=O)NC(C)C)cs3)CC2)cc1 [Example 932] | > 1000
CC(C)NC(=O)c1csc(-c2c(-c3ccc(F)cc3)n[nH]c2C2CCN(C(=O)c3ccc(OC(C)C)cc3)CC2)n1 [Example 933] | > 1000
COc1ccc(OC)c(C(=O)N2CCC(c3[nH]nc(-c4ccc(F)cc4)c3-c3nc(C(=O)NC(C)C)cs3)CC2)c1 [Example 938] | > 1000
COc1ccc(C(=O)N2CCC(c3[nH]nc(-c4ccc(F)cc4)c3-c3nc(C(=O)NC(C)C)cs3)CC2)c(OC)c1 [Example 939] | > 1000
COc1cc(OC)cc(C(=O)N2CCC(c3[nH]nc(-c4ccc(F)cc4)c3-c3nc(C(=O)NC(C)C)cs3)CC2)c1 [Example 941] | > 1000
Cc1ccc(SCC(=O)N2CCC(c3[nH]nc(-c4ccc(F)cc4)c3-c3nc(C(=O)NC(C)C)cs3)CC2)cc1 [Example 943] | > 1000
CC(C)NC(=O)c1csc(-c2c(-c3ccc(F)cc3)n[nH]c2C2CCN(C(=O)/C=C/c3ccc(Cl)cc3)CC2)n1 [Example 944] | > 1000
CC(C)NC(=O)c1csc(-c2c(-c3ccc(F)cc3)n[nH]c2C2CCN(C(=O)/C=C/c3ccccc3Cl)CC2)n1 [Example 945] | > 1000
CC(C)NC(=O)c1csc(-c2c(-c3ccc(F)cc3)n[nH]c2C2CCN(C(=O)c3ccc([N+](=O)[O-])c(O)c3)CC2)n1 [Example 946] | > 1000
CC(C)NC(=O)c1csc(-c2c(-c3ccc(F)cc3)n[nH]c2C2CCN(C(=O)c3cc([N+](=O)[O-])ccc3F)CC2)n1 [Example 949] | > 1000
CC(C)NC(=O)c1csc(-c2c(-c3ccc(F)cc3)n[nH]c2C2CCN(C(=O)c3cc(F)ccc3[N+](=O)[O-])CC2)n1 [Example 950] | > 1000
CC(C)NC(=O)c1csc(-c2c(-c3ccc(F)cc3)n[nH]c2C2CCN(C(=O)c3ccc(F)c([N+](=O)[O-])c3)CC2)n1 [Example 951] | > 1000
COc1cc(Cl)ccc1C(=O)N1CCC(c2[nH]nc(-c3ccc(F)cc3)c2-c2nc(C(=O)NC(C)C)cs2)CC1 [Example 953] | > 1000
CC(C)NC(=O)c1csc(-c2c(-c3ccc(F)cc3)n[nH]c2C2CCN(C(=O)c3c(O)ccc4ccccc34)CC2)n1 [Example 957] | > 1000
CC(C)NC(=O)c1csc(-c2c(-c3ccc(F)cc3)n[nH]c2C2CCN(C(=O)c3ccc4cccc(O)c4n3)CC2)n1 [Example 960] | > 1000
CC(C)NC(=O)c1csc(-c2c(-c3ccc(F)cc3)n[nH]c2C2CCN(C(=O)C(C)NC(=O)OC(C)(C)C)CC2)n1 (centres unmarked) [Example 961] | > 1000
CC(C)NC(=O)c1csc(-c2c(-c3ccc(F)cc3)n[nH]c2C2CCN(C(=O)CCc3nc4ccccc4[nH]3)CC2)n1 [Example 964] | ≤ 1000
CC(C)NC(=O)c1csc(-c2c(-c3ccc(F)cc3)n[nH]c2C2CCN(C(=O)c3cccc(Cl)c3Cl)CC2)n1 [Example 965] | > 1000
CC(C)NC(=O)c1csc(-c2c(-c3ccc(F)cc3)n[nH]c2C2CCN(C(=O)c3cc(Cl)ccc3Cl)CC2)n1 [Example 967] | > 1000
CCCCCc1ccc(C(=O)N2CCC(c3[nH]nc(-c4ccc(F)cc4)c3-c3nc(C(=O)NC(C)C)cs3)CC2)cc1 [Example 971] | > 1000

Further lines, results first:

IC50 [nM] | Structure (SMILES)
> 1000 | CC(C)NC(=O)c1csc(-c2c(-c3ccc(F)cc3)n[nH]c2C2CCN(C(=O)c3ccc(Cl)cc3O)CC2)n1 [Example 909]
> 1000 | CC(C)NC(=O)c1csc(-c2c(-c3ccc(F)cc3)n[nH]c2C2CCN(C(=O)c3ccc(F)cc3Cl)CC2)n1 [Example 913]
> 1000 | CC(C)NC(=O)c1csc(-c2c(-c3ccc(F)cc3)n[nH]c2C2CCN(C(=O)CNC(=O)OC(C)(C)C)CC2)n1 [Example 915]
≤ 1000 | Cc1c(C(=O)N2CCC(c3[nH]nc(-c4ccc(F)cc4)c3-c3nc(C(=O)NC(C)C)cs3)CC2)oc2ccccc12 [Example 916]
> 1000 | CC(C)NC(=O)c1csc(-c2c(-c3ccc(F)cc3)n[nH]c2C2CCN(C(=O)CC3Cc4ccccc4C3)CC2)n1 [Example 917]
> 1000 | CC(C)NC(=O)c1csc(-c2c(-c3ccc(F)cc3)n[nH]c2C2CCN(C(=O)C3CCc4ccccc4C3)CC2)n1 (centres unmarked) [Example 918]
> 1000 | COc1ccccc1/C=C/C(=O)N1CCC(c2[nH]nc(-c3ccc(F)cc3)c2-c2nc(C(=O)NC(C)C)cs2)CC1 [Example 919]
> 1000 | CC(C)NC(=O)c1csc(-c2c(-c3ccc(F)cc3)n[nH]c2C2CCN(C(=O)c3csc4ccccc34)CC2)n1 [Example 920]
> 1000 | CC(C)NC(=O)c1csc(-c2c(-c3ccc(F)cc3)n[nH]c2C2CCN(C(=O)c3cc4ccccc4s3)CC2)n1 [Example 921]
> 1000 | CCCCc1ccc(C(=O)N2CCC(c3[nH]nc(-c4ccc(F)cc4)c3-c3nc(C(=O)NC(C)C)cs3)CC2)cc1 [Example 922]
> 1000 | CC(C)NC(=O)c1csc(-c2c(-c3ccc(F)cc3)n[nH]c2C2CCN(C(=O)c3ccc(N(C)C=O)cc3)CC2)n1 [Example 924]
> 1000 | CC(C)NC(=O)c1csc(-c2c(-c3ccc(F)cc3)n[nH]c2C2CCN(C(=O)COc3ccccc3C=O)CC2)n1 [Example 926]
> 1000 | CC(=O)Oc1ccc(C(=O)N2CCC(c3[nH]nc(-c4ccc(F)cc4)c3-c3nc(C(=O)NC(C)C)cs3)CC2)cc1 [Example 927]
> 1000 | COC(=O)c1ccc(C(=O)N2CCC(c3[nH]nc(-c4ccc(F)cc4)c3-c3nc(C(=O)NC(C)C)cs3)CC2)cc1 [Example 928]
> 1000 | CC(=O)Oc1cccc(C(=O)N2CCC(c3[nH]nc(-c4ccc(F)cc4)c3-c3nc(C(=O)NC(C)C)cs3)CC2)c1 [Example 929]
> 1000 | CC(C)NC(=O)c1csc(-c2c(-c3ccc(F)cc3)n[nH]c2C2CCN(C(=O)Cc3ccc4c(c3)OCO4)CC2)n1 [Example 931]
> 1000 | Cc1cccc(C(=O)N2CCC(c3[nH]nc(-c4ccc(F)cc4)c3-c3nc(C(=O)NC(C)C)cs3)CC2)c1[N+](=O)[O-] [Example 935]
> 1000 | Cc1ccc([N+](=O)[O-])c(C(=O)N2CCC(c3[nH]nc(-c4ccc(F)cc4)c3-c3nc(C(=O)NC(C)C)cs3)CC2)c1 [Example 936]

IC50 [nM] | Structure (SMILES)
> 1000 | COc1cccc(OC)c1C(=O)N1CCC(c2[nH]nc(-c3ccc(F)cc3)c2-c2nc(C(=O)NC(C)C)cs2)CC1 [Example 940]
> 1000 | COc1cccc(C(=O)N2CCC(c3[nH]nc(-c4ccc(F)cc4)c3-c3nc(C(=O)NC(C)C)cs3)CC2)c1OC [Example 942]
≤ 1000 | CC(C)NC(=O)c1csc(-c2c(-c3ccc(F)cc3)n[nH]c2C2CCN(C(=O)c3cc(O)ccc3[N+](=O)[O-])CC2)n1 [Example 947]
> 1000 | CC(C)NC(=O)c1csc(-c2c(-c3ccc(F)cc3)n[nH]c2C2CCN(C(=O)c3cc([N+](=O)[O-])ccc3O)CC2)n1 [Example 948]
> 1000 | COc1ccc(Cl)cc1C(=O)N1CCC(c2[nH]nc(-c3ccc(F)cc3)c2-c2nc(C(=O)NC(C)C)cs2)CC1 [Example 952]
> 1000 | CC(C)NC(=O)c1csc(-c2c(-c3ccc(F)cc3)n[nH]c2C2CCN(C(=O)Cc3ccc(O)c(Cl)c3)CC2)n1 [Example 954]
> 1000 | COc1cc(C(=O)N2CCC(c3[nH]nc(-c4ccc(F)cc4)c3-c3nc(C(=O)NC(C)C)cs3)CC2)cc(Cl)n1 [Example 955]
> 1000 | CC(C)NC(=O)c1csc(-c2c(-c3ccc(F)cc3)n[nH]c2C2CCN(C(=O)c3ccc4cc(O)ccc4c3)CC2)n1 [Example 956]
> 1000 | CC(C)NC(=O)c1csc(-c2c(-c3ccc(F)cc3)n[nH]c2C2CCN(C(=O)c3cc4ccccc4cc3O)CC2)n1 [Example 958]
> 1000 | CC(C)NC(=O)c1csc(-c2c(-c3ccc(F)cc3)n[nH]c2C2CCN(C(=O)c3ccc4ccccc4c3O)CC2)n1 [Example 959]
> 1000 | CC(C)NC(=O)c1csc(-c2c(-c3ccc(F)cc3)n[nH]c2C2CCN(C(=O)C(C)NC(=O)OC(C)(C)C)CC2)n1 (centres unmarked) [Example 962]
> 1000 | CC(C)NC(=O)c1csc(-c2c(-c3ccc(F)cc3)n[nH]c2C2CCN(C(=O)c3ccccc3C(F)(F)F)CC2)n1 [Example 963]
> 1000 | CC(C)NC(=O)c1csc(-c2c(-c3ccc(F)cc3)n[nH]c2C2CCN(C(=O)c3ccc(Cl)cc3Cl)CC2)n1 [Example 966]
> 1000 | CC(C)NC(=O)c1csc(-c2c(-c3ccc(F)cc3)n[nH]c2C2CCN(C(=O)c3cc(F)c(F)c(O)c3F)CC2)n1 [Example 968]
> 1000 | CC(C)NC(=O)c1csc(-c2c(-c3ccc(F)cc3)n[nH]c2C2CCN(C(=O)/C=C/c3ccc4c(c3)OCO4)CC2)n1 [Example 969]
> 1000 | Cc1ccc(C(=O)CCC(=O)N2CCC(c3[nH]nc(-c4ccc(F)cc4)c3-c3nc(C(=O)NC(C)C)cs3)CC2)cc1 [Example 970]
> 1000 | CC(C)NC(=O)c1csc(-c2c(-c3ccc(F)cc3)n[nH]c2C2CCN(C(=O)c3cc(F)c(F)cc3Cl)CC2)n1 [Example 972]
